Source: US10772875B2, “Agents enhancing HuR/ELAV protein levels for use in the treatment of BRAF-mutated cancers” (LES HOPITAUX UNIVERSITAIRES DE GENEVE, priority 2017, dated 2020)

Legend:
[1] = tested on: HuR in MALME-3M cells; assay: Western blot of nuclear and cytoplasmic fractions for HuR expression, MALME-3M; type: cell-based, human; conditions: for HuR cytoplasmic content: C1 5 mM or 1 mM for 6 days, C2 15 μM 24 h
Text: (§1) Some HIV protease inhibitors (such as Nelfinavir) have been used in combination with a BRAF inhibitor to potentiate its effect (Smith et al., 2016, cancer cell, 29(3): 270-284) and some HIV protease inhibitors have (such as Lopinavir) been reported as increasing the cytosolic translocation of HuR (Chen et al., 2009, Biochem Pharmacol., 78(1): 70-77). Further, some polyamine depleting agents i.e. agents reducing the cellular content in polyamines (α-difluoromethylornithine (DFMO), also named Eflornithin) have been reported to modulate cytoplasmic HuR levels (Zou et al., 2006, J. Biol. Chem., 281(28):19387-94). Therefore, a […], Eflornithine (DFMO) and a HIV protease inhibitor, lopinavir ((2S)-N-[(2S,4S,5S)-5-[[2-(2,6-dimethylphenoxy)acetyl]amino]-4-hydroxy-1,6-diphenylhexan-2-yl]-3-methyl-2-(2-oxo-1,3-diazinan-1-yl)butanamide) were tested as comparative examples ((comparative compounds C1 and C2, respectively)) for their ability to increase HuR cytoplasmic localization in melanoma (A375 and the MALME-3M cells (melanoma BRAF mutated sensitive cell lines) cell lines as follows and analysis was conducted by Western blot analysis as described in Example 1 [, except that the cells were treated with comparative compound C1 dissolved in DMSO at 5 mM or at 1 mM for 6 consecutive days, where fresh medium with C1 was added in 6 well plates every day and the cells were split every 3 days or the cells were treated with C2 at 15 μM dissolved in DMSO for 24 h. Cell fractionation was conducted using the NE-PER Nuclear and Cytoplasmic Extraction Reagents (ThermoFisher Scientific) according to the manufacturer's instructions. Nuclear (N) and cytoplasmic (C) fractions were analyzed for HuR expression by western blot as described above. […] As a comparison of successful increase in HuR cytoplasmic content, western blot analysis was performed on cells infected with aG or aH at m.o.i 5, 25 or 125 as described in Example1 (FIG. 8C).
(§2) Western blot analysis was conducted as described in Examples 1 and 5, except that cells were treated with LiCl at 1 mM (for 6 h for A375 and for 24 h for MALME-3M cells) before cell lysis and analysis. […] Considering that HuR is mainly a nuclear protein, the absence of any nuclear contamination in the cytoplasm as observed here fulfils the experimental requirements. The increased cytoplasmic expression of HuR was quantified as being respectively 80% and 50% increased in A375 and Malme 3M melanoma cells using an image quantification software (ImageJ).

[2] = tested on: HuR in A375 cells; assay: Western blot of nuclear and cytoplasmic fractions for HuR expression, A375; type: cell-based, human; conditions: for HuR cytoplasmic content: C1 5 mM or 1 mM for 6 days, C2 15 μM 24 h
Text: as §1, §2

[3] = tested on: A375 cells; assay: WST-1 cell proliferation assay, vemurafenib dose response; type: cell-based; conditions: for proliferation rate increase (paradoxical proliferation): A375 cells, 48 h
Description: The A375 BRAFV600E melanoma cell line was purchased from CLS Cell Lines Service GmbH (Cryovial: 300110). A375 cells were maintained at 37° C. and 5% CO2 in a humidified atmosphere and grown in DMEM (Dulbecco's modified Eagle's medium) growth media supplemented with 10% FBS (fetal bovine serum), 2 mM glutamine, 1% penicillin/streptomycin. Cells were verified to be mycoplasma-free (PanReac Applichem mycoplasma test kit). Cells were treated with the BRAF inhibitor, vemurafenib (Selleckchem), also known as N-[3-[5-(4-chlorophenyl)-1H-pyrrolo[2,3-b]pyridine-3-carbonyl]-2,4-difluorophenyl]propane-1-sulfonamide and dissolved in dimethyl sulphoxide (DMSO, 10 mM storing concentration).
Cell proliferation was measured using WST-1 reagent (Roche applied Science). Melanoma cells were plated (2500 cells per well) in 96-well tissue culture plates. After 24 h, the cells were treated with vemurafenib or DMSO (excipient) at the indicated concentrations in triplicate or quadruplicate. The excipient is used at the same dilution as the one necessary to get the desired concentration of vemurafenib, in that case for example if 1/1000 dilution is necessary to get a 100 nM final concentration of vemurafenib, then the DMSO pure stock solution will be also diluted to 1/1000. For the standard proliferation assays, after the treatment period of 48 h, WST-reagent (20 μl, 10% of the final volume) was added to the wells and incubated at 37° C. for 1 to 2 h depending on the experiment in order to stay within the linear range of the assay. The plates were read at 450(−650) nm on a Vmax kinetic ELISA Microplate Reader (Molecular Devices). Cell proliferation is expressed as percentage of the absorbance compared with the DMSO-treated cells. Proliferation assays for overexpression experiments were scheduled as follows: A375 cells were plated (800000 cells per well) in six-well culture plates. After 24 h, the cells were infected overnight at indicated m.o.i. […]

[4] = tested on: BRAF-mutant colorectal patients; conditions: BRAF-mutant colorectal patients (Kopetz et al., 2010); cited from earlier work
[5] = tested on: HuR in A375 melanoma cells; assay: Whole cell extract western blot on HuR-expressing adenovirus-infected A375 cells; conditions: Li 1 mM and 10 mM
Description: Western blot analysis was performed on cell extracts of A375 cells at 48 h post-infection. Whole cell lysates were prepared using RIPA (radioimmunoprecipitation assay) buffer (PBS (phosphate-buffered saline), 1% NP40 (nonyl phenoxypolyethoxylethanol 40), 0.1% sodium deoxycholate, 0.1% SDS (sodium dodecyl sulphate)) supplemented with fresh protease and phosphatase inhibitors (easy packs tablets, Roche). Cell lysates were quantified for protein content using Bio-Rad DC (detergent compatible) kit. Protein samples were resolved on 12.5% polyacrylamide Bis-Tris gel (Bio-rad) and then transferred to nitrocellulose membrane. After saturation, the membranes were incubated overnight with the anti-HuR mouse monoclonal antibody (Santa-Cruz/3A2-sc-5261, 1:1000) raised against full-length HuR of human origin. The secondary antibody conjugated to horseradish-peroxidase (Bio-Rad goat anti-mouse IgG-HRP, 1:3000) was incubated at room temperature for 30 minutes. Blots were developed using the ECL (enhanced chemiluminescent) system (Thermo-Scientific) according to the manufacturer's instructions.

Q: With `Cc1cccc(C)c1OCC(=O)N[C@@H](Cc1ccccc1)[C@@H](O)C[C@H](Cc1ccccc1)NC(=O)[C@H](C(C)C)N1CCCNC1=O` [C2, (2S)-N-[(2S,4S,5S)-5-[[2-(2,6-dimethylphenoxy)acetyl]amino]-4-hydroxy-1,6-diphenylhexan-2-yl]-3-methyl-2-(2-oxo-1,3-diazinan-1-yl)butanamide] as the compound, how does the HuR cytoplasmic content ([1]; MALME-3M cells) read?
A: Its HuR cytoplasmic content is “no increase of HuR cytoplasmic content”.

Q: And the HuR cytoplasmic content [2]?
A: The HuR cytoplasmic content was “no increase of HuR cytoplasmic content”.

Q: With `CCCS(=O)(=O)Nc1ccc(F)c(C(=O)c2c[nH]c3ncc(-c4ccc(Cl)cc4)cc23)c1F` [vemurafenib, N-{3-[5-(4-chlorophenyl)-1H-pyrrolo[2,3-b]pyridine-3-carbonyl]-2,4-difluorophenyl}propane-1-sulfonamide] as the compound, how does the “proliferation rate increase (paradoxical proliferation)” value ([3]; 20 nM vemurafenib) read?
A: The value was “up to 50%”.

Q: What about the “proliferation rate increase (paradoxical proliferation)” value ([3]; 100 nM vemurafenib) of the same compound?
A: The value was “up to 25%”.

Q: What about the vemurafenib-induced paradoxical proliferation ([3]; aH cells (HuR-overexpressing A375), in contrast to aG or non-infected cells) of the same compound?
A: The vemurafenib-induced paradoxical proliferation was “no vemurafenib-induced paradoxical proliferation was observed”.

Q: What about the patients who respond [4] of the same compound?
A: The patients who respond was ~5%.

Q: For `[Cl-].[Li+]` [LiCl, Lithium Chloride], which “total amount of HuR expression (endogenous and exogenous epitope-tagged HuR)” value [5] is on record?
A: The value was “clearly increases the total amount of HuR expression with a dose effect”.

Q: And the “total amount of HuR expression and HuR cytoplasmic content” value ([1]; MALME-3M cells, LiCl 1 mM)?
A: The value was “increase of both total amount of HuR expression and HuR cytoplasmic content”.

Q: What about the “increased cytoplasmic expression of HuR (ImageJ quantification)” value ([1]; Malme 3M cells, LiCl 1 mM, 24 h) of the same compound?
A: Its value is 50%.

Q: And the “total amount of HuR expression and HuR cytoplasmic content” value ([2]; LiCl 1 mM)?
A: Its value is “increase of both total amount of HuR expression and HuR cytoplasmic content”.

Q: And the “increased cytoplasmic expression of HuR (ImageJ quantification)” value ([2]; LiCl 1 mM, 6 h)?
A: The value was 80%.

Q: With `NCCC[C@](N)(C(=O)O)C(F)F` [C1, α-difluoromethylornithine] as the compound, how does the HuR cytoplasmic content ([1]; MALME-3M cells) read?
A: The HuR cytoplasmic content was “no increase of HuR cytoplasmic content”.

Q: What about the HuR cytoplasmic content [2] of the same compound?
A: Its HuR cytoplasmic content is “no increase of HuR cytoplasmic content”.
